In patent publication US6485755B1, “Methods of using electron active compounds for managing cancer” (Marantech Holding, priority 2000, dated 2002):
Where two headings read alike, the source gives them in different places.

Key:
[1] = persons not prone to silver allergies
Excerpt: Preferred routes of administration include topically and application to mucosa. Application can be made, for example, digitally or using a suitable applicator.

breast cancer = system: breast cancer
Experimental: A subject group was formed of thirty female residents of Central America aged 32 to 52 years who had been diagnosed as having breast cancer. […] The diagnosis of each subject was confirmed by biopsy and a mammogram was acquired from each subject.
Each subject was evaluated daily by an oncologist(s) and each received a single dosage of tetrasilver tetroxide by IV, i.e., intravenously, sufficient to provide a concentration in the bloodstream of 10 ppm. One-half of the patients received the dosage in 10 minutes by IV injection. The other half of the subjects received the dosage by IV injection over a 4-hour period.
As discussed below, the subjects were arranged in three histology groups. Within each histologic group, 50% of the subjects received the dosage via the 10 minute IV and the other 50% of the subjects received the dosage over the 4 hour period of time.
Prior to initiating treatment, the tetrasilver tetroxide was subjected a quality assurance protocol to reduce side effects.
Group I: Group I included 10 patients who had been diagnosed as having infiltrative canalicular breast carcinoma.
A 1 cm diameter biopsy fragment was sent to a pathologist laboratory.
Group II: Group II included 10 subjects were diagnosed as having ductile carcinoma special type, medular breast cancer.
Group III: Group III included ten patients diagnosed as having infiltrative lobular breast cancer.
For each of the three groups, the dosage was 10 ppm for every subject. The patients had 24-hour evaluations by three oncologists who were each responsible for an 8-hour time period. Every 4 hours, a professional nurse acquired vital signs from the subjects. Twenty-four hour hemodynamic monitoring was performed. The subjects walked 2 hours after they received the dosage and they were prescribed a free diet. Every twenty-four hours, urine was collected. Every seven days, the following laboratory tests were performed: a complete blood count, hemoglobin, hematocracity, vcm, vhcm, complete red blood cells, complete white blood cells, albumin, bilirubin, calcium, and cholesterol, creatine, glucose, ldh, potassium, sodium, triglyceride, uric acid, urea nitrogen, AST and SGOT.

A498 = settings: A498, estimated
Experimental: (§1) An independent laboratory performed cytotoxicity tumor cell proliferation studies and evaluations. A culture of leukemia K562 was tested in vitro against media concentrations of tetrasilver tetroxide at: 0.5, 1,5, 10, 50, 100, 500 and 1000 ppm.
(§2) The tetroxide was dispersed in pure dimethyl sulfoxide and then diluted with Holipharm NPS buffer PH=7.4 (Holipharm International Co., Wilmington, Del.) in culture media to achieve the aforesaid final assay concentrations. The acronym NPS refers to non phosphate non saline. The culture media comprised RPMI 1640, 90% and fetal bovine serum, 10%. The cancer cultures were obtained from a cell line provided by the American Type Culture Collection (ATCC) and were incubated at 37° C. with 5% CO2 in air atmosphere. The culture was a human chronic myelogenous leukemia, of cell line source ATCCCCL-243.
(§3) As for the actual evaluation, cell proliferation analysis was based on the ability of viable cells to cause alamar blue to change from oxidized (non-fluorescent, blue) to reduced (fluorescent, red) form. Details of the procedure are described in an article by S. Ansar Ahmed et. al. in the Journal of Immunological Methods 170 (1994).
(§4) The ^aIC50 (50% Inhibition Concentration) is the test compound concentration where the increase from times in the number or mass of treated cells was only 50% as much as the corresponding increase in the vehicle-control at the end of experiment. The bTGI (Total Growth Inhibition) is the test compound concentration where the number or mass of treated cells at the end of experiment was equal to that at time. The CLC (50% Lethal Concentration) is the test compound concentration where the number or mass of treated cells at the end of experiment was half that at time.

A549 = settings: A549, estimated
Experimental: as §1, §2, §3, §4

DLD-i = settings: estimated
Experimental: as §1, §2, §3, §4

H33HJ-.JA1 = settings: H33HJ-.JA1, estimated
Experimental: as §1, §2, §3, §4

HL-60 = settings: HL-60, estimated
Experimental: as §1, §2, §3, §4

HeDG2 = settings: HeDG2, estimated
Experimental: as §1, §2, §3, §4

KATO III = settings: estimated
Experimental: as §1, §2, §3, §4

MCF-7 = settings: MCF-7, estimated
Experimental: as §1, §2, §3, §4

MIA PaCa2 = settings: MIA PaCa2, estimated
Experimental: as §1, §2, §3, §4

PANC-i = settings: estimated
Experimental: as §1, §2, §3, §4

PC-3 = settings: PC-3, estimated
Experimental: as §1, §2, §3, §4

T47D = settings: estimated
Experimental: as §1, §2, §3, §4

U937 = settings: U937, estimated
Experimental: as §1, §2, §3, §4

[2] = system: human malignant melanoma cell line SK-MEL-5
Experimental: as §1, §2, §3, §4

leukemia K562 = system: leukemia K562
Experimental: as §1, §2, §3, §4

pc-6 = settings: pc-6, estimated
Experimental: as §1, §2, §3, §4

[3] = system: gynecological yeast infection; settings: 10 ppm silver tetroxide and 40 ppm sodium persulfate; cited from earlier work
athlete's foot = settings: solution of 100 ppm of the composition; cited from earlier work
toenail fungus = settings: 25% suspension of the composition; cited from earlier work
[4] = single IV injection at about 40 ppm of human blood; cited from earlier work
[5] = compared with Ag(I) compounds; cited from earlier work
[6] = Group III, day 20 after treatment

## [Ag+].[Ag+].[Ag+].[Ag+].[O-2].[O-2].[O-2].[O-2] [tetrasilver tetroxide]
[1]
  ill effects or irritation on application to the skin: without any ill effects or evidence of irritation
Breast cancer; Group I
  sodium, potassium and magnesium blood levels: decreased
Breast cancer; Group I infiltrative canalicular breast carcinoma, single IV dose 10 ppm in bloodstream, 12 days after treatment
  nodule on palpation: the nodule was no longer discernable by touch
Breast cancer; Group I, 10 minute IV injection subgroup
  patients with increase in body temperature and slight liver enlargement: Three of the patients
Breast cancer; Group I, biopsy ordered 19 days after treatment
  biopsies reported as normal mammary tissue: 100%
Breast cancer; Group I, patients with liver enlargement
  liver function: not affected
Breast cancer; Group II
  liver function: not affected
  sodium, potassium and magnesium blood levels: decreased
Breast cancer; Group II medular breast cancer, 36 hours after treatment, formerly 10 cm
  average tumor size: 8.4 cm
Breast cancer; Group II, biopsy after 24 days
  biopsy reported as normal mammary tissue: 90%
Breast cancer; Group II, day 16 after treatment
  tumor mass: the huge tumor mass was gone
Breast cancer; Group II, direct IV injection subgroup
  patients with increase in body temperature and slight liver enlargement: One patient
Breast cancer; Group III
  sodium, potassium and magnesium blood levels: deceased
Breast cancer; Group III infiltrative lobular breast cancer, 5 days after treatment, from 4 cm
  average nodule size: 2.6 cm
Breast cancer; Group III, biopsy ordered day 29 after treatment
  biopsies reported as normal mammary tissue: 80%
Breast cancer; [6]
  average nodule size: 1 cm
  remission of retracted nipples, nipple bleeding, distorted areola, mass attachment: 90%
Breast cancer; Group III, direct injection subgroup
  patients with increase in body temperature or slight liver enlargement: None of the patients
Breast cancer; ductile carcinoma special type, medular breast carcinoma (Group II)
  period to apparent cure: 30 days
Breast cancer; infiltrative breast carcinoma (Group I)
  period to apparent cure: 24 days
Breast cancer; infiltrative lobular breast cancer (Group III)
  period to apparent cure: 30 days
A498
  IC50: 1.8 ppm
  LC50: 3.1 ppm
  TGI: 2.4 ppm
A549
  IC50: 4.8 ppm
  LC50: 7.0 ppm
  TGI: 5.8 ppm
DLD-i
  IC50: 2.5 ppm
  LC50: 3.6 ppm
  TGI: 3.0 ppm
H33HJ-.JA1
  IC50: 0.79 ppm
  LC50: 3.8 ppm
  TGI: 1.3 ppm
HL-60
  IC50: 2.1 ppm
  LC50: 4.6 ppm
  TGI: 3.1 ppm
HeDG2
  IC50: 2.6 ppm
  LC50: 4.7 ppm
  TGI: 3.5 ppm
KATO III
  IC50: 3.2 ppm
  LC50: 4.1 ppm
  TGI: 3.6 ppm
MCF-7
  IC50: 3.0 ppm
  LC50: 5.0 ppm
  TGI: 3.9 ppm
MIA PaCa2
  IC50: 2.0 ppm
  LC50: 8.1 ppm
  TGI: 4.0 ppm
PANC-i
  IC50: 4.8 ppm
  LC50: 8.6 ppm
  TGI: 6.4 ppm
PC-3
  IC50: 7.7 ppm
  LC50: 25 ppm
  TGI: 14 ppm
T47D
  IC50: 1.1 ppm
  LC50: 2.6 ppm
  TGI: 1.6 ppm
U937
  IC50: 1.3 ppm
  LC50: 3.6 ppm
  TGI: 2.2 ppm
[2]
  IC50 (50% Inhibition Concentration): 3.7 ppm
  LC50 (50% Lethal Concentration): 6.5 ppm
  TGI (Total Growth Inhibition): 4.9 ppm
Leukemia K562
  IC50 (50% Inhibition Concentration): 2.2 ppm
  LC50 (50% Lethal Concentration): 6.0 ppm
  TGI (Total Growth Inhibition): 4.6 ppm
pc-6
  IC50: 0.9 ppm
  LC50: 1.1 ppm
  TGI: 1.0 ppm
[3]
  outcome of gynecological yeast infection: curing
athlete's foot
  outcome of athlete's foot, single case: cure
Toenail fungus
  outcome of toenail fungus, single case: cure
[4]
  adverse effect on the liver: hepatomegaly
  liver function: no reported loss of liver function
[5]
  staining of organic matter such as skin: did not stain organic matter such as skin
